Assay results: patent publication US8394442B2, “Process for the preparation of a flavoring concentrate, and a flavoring concentrate” (SYMRISE AG, priority 2007, dated 2013)
Like-named read-outs stand apart in the source and are kept apart here.

Tests used:
[1] = log Pow* calculated by Formula 2 from log Pow and the polarity parameter P′(x) of the ethanol/water mixture
[2] = log Pow: distribution coefficient between 1-octanol and water; conditions: 1-octanol/water
Excerpt: Log Pow*=log Pow*−x*P′(x)/log Pow Formula 2: • where log Pow is the decimal logarithm of the distribution coefficient of a substance between 1-octanol and water, • x is the resulting solvent proportion based on the total volume proportion, normalized as 1.0, and • P′(x) is the polarity parameter for the corresponding solvent for the solvent proportion x.

[3] = solvent ethanol, proportion 10%
[4] = solvent ethanol, proportion 30%
[5] = solvent ethanol, proportion 40%
[6] = solvent ethanol, proportion 50%
[7] = solvent ethanol, proportion 60%
[8] = solvent ethanol, proportion 70%
[9] = solvent ethanol, proportion 80%
[10] = solvent ethanol, proportion 90%
[11] = solvent ethanol, proportion 100%

| Compound | log Pow* (P′ 2%) [1] | log Pow* (P′ 4%) [1] | log Pow* (P′ 6%) [1] | log Pow* (P′ 8%) [1] | log Pow* (P′ 10%) [1] | log Pow* (P′ 30%) [1] | log Pow [2] | log Pow* (P′ 2%) ([1]; solvent ethanol, proportion 2%) | log Pow* (P′ 4%) ([1]; solvent ethanol, proportion 4%) | log Pow* (P′ 6%) ([1]; solvent ethanol, proportion 6%) | log Pow* (P′ 8%) ([1]; solvent ethanol, proportion 8%) | log Pow* (P′ 10%) [1, 3] | log Pow* (P′ 30%) [1, 4] | log Pow* (P′ 40%) [1, 5] | log Pow* (P′ 50%) [1, 6] | log Pow* (P′ 60%) [1, 7] | log Pow* (P′ 70%) [1, 8] | log Pow* (P′ 80%) [1, 9] | log Pow* (P′ 90%) [1, 10] | log Pow* (P′ 100%) [1, 11] | further results |
| --- | --- | --- | --- | --- | --- | --- | --- | --- | --- | --- | --- | --- | --- | --- | --- | --- | --- | --- | --- | --- | --- |
| c1ccc2[nH]ccc2c1 [Indole] |  |  |  |  |  |  | 2.14 | 2.05 | 1.96 | 1.88 | 1.80 | 1.72 | 1.13 | 0.91 | 0.73 | 0.57 | 0.44 | 0.32 | 0.22 | 0.13 |  |
| Ethyldimethylpyrazine |  |  |  |  |  |  | 1.60 | 1.48 | 1.36 | 1.25 | 1.14 | 1.04 | 0.25 | −0.05 | −0.29 | −0.50 | −0.68 | −0.83 | −0.97 | −1.09 |  |
| CCC(C)CO (stereo not shown) [2-mebutanol, 2-methylbutanol] |  |  |  |  |  |  | 1.29 | 1.14 | 0.99 | 0.85 | 0.72 | 0.59 | −0.39 | −0.75 | −1.05 | −1.31 | −1.53 | −1.73 | −1.89 | −2.04 |  |
| CCC/C=C/C=O [2E-hexenal] |  |  |  |  |  |  | 1.61 | 1.49 | 1.37 | 1.26 | 1.15 | 1.05 | 0.26 | −0.03 | −0.27 | −0.47 | −0.65 | −0.81 | −0.94 | −1.06 |  |
| CC(C)CCO [3-mebutanol, 3-methylbutanol] | 1.12 | 0.98 | 0.84 | 0.71 | 0.58 | −0.41 | 1.28 |  |  |  |  |  |  |  |  |  |  |  |  |  | log Pow* (P′ 40%) [1]: −0.78; log Pow* (P′ 50%) [1]: −1.08; log Pow* (P′ 60%) [1]: −1.34; log Pow* (P′ 70%) [1]: −1.57; log Pow* (P′ 80%) [1]: −1.76; log Pow* (P′ 90%) [1]: −1.93; log Pow* (P′ 100%) [1]: −2.08 |

The next lines start with results.

| log Pow* (P′ 2%) [1] | log Pow* (P′ 4%) [1] | log Pow* (P′ 6%) [1] | log Pow* (P′ 8%) [1] | log Pow* (P′ 10%) [1] | log Pow* (P′ 30%) [1] | log Pow [2] | Compound | log Pow* (P′ 2%) ([1]; solvent ethanol, proportion 2%) | log Pow* (P′ 4%) ([1]; solvent ethanol, proportion 4%) | log Pow* (P′ 6%) ([1]; solvent ethanol, proportion 6%) | log Pow* (P′ 8%) ([1]; solvent ethanol, proportion 8%) | log Pow* (P′ 10%) [1, 3] | log Pow* (P′ 30%) [1, 4] | log Pow* (P′ 40%) [1, 5] | log Pow* (P′ 50%) [1, 6] | log Pow* (P′ 60%) [1, 7] | log Pow* (P′ 70%) [1, 8] | log Pow* (P′ 80%) [1, 9] | log Pow* (P′ 90%) [1, 10] | log Pow* (P′ 100%) [1, 11] | further results |
| --- | --- | --- | --- | --- | --- | --- | --- | --- | --- | --- | --- | --- | --- | --- | --- | --- | --- | --- | --- | --- | --- |
| 2.76 | 2.69 | 2.63 | 2.57 | 2.51 | 2.06 | 2.83 | CCCSSC [Methylpropyldisulfide] |  |  |  |  |  |  |  |  |  |  |  |  |  | log Pow* (P′ 40%) [1]: 1.90; log Pow* (P′ 50%) [1]: 1.76; log Pow* (P′ 60%) [1]: 1.64; log Pow* (P′ 70%) [1]: 1.54; log Pow* (P′ 80%) [1]: 1.46; log Pow* (P′ 90%) [1]: 1.38; log Pow* (P′ 100%) [1]: 1.31 |
| 3.22 | 3.16 | 3.11 | 3.06 | 3.01 | 2.62 | 3.28 | C=CC(C)(O)CCC=C(C)C (stereo not shown) [Linalool] |  |  |  |  |  |  |  |  |  |  |  |  |  | log Pow* (P′ 40%) [1]: 2.48; log Pow* (P′ 50%) [1]: 2.36; log Pow* (P′ 60%) [1]: 2.26; log Pow* (P′ 70%) [1]: 2.17; log Pow* (P′ 80%) [1]: 2.09; log Pow* (P′ 90%) [1]: 2.03; log Pow* (P′ 100%) [1]: 1.97 |
|  |  |  |  |  |  | 4.04 | CC1=CCC(C(C)(C)S)CC1 (stereo not shown) [p-menthenethiol-1,8] | 3.99 | 3.94 | 3.90 | 3.86 | 3.82 | 3.50 | 3.39 | 3.29 | 3.21 | 3.14 | 3.08 | 3.02 | 2.98 |  |
